Counter-ions that a name gives are not always drawn. Like-named read-outs stand apart in the source and are kept apart here.

The target in the assay is IRAK4 (Homo sapiens (Human), UniProt Q9NWZ3). The experiment in a line: IRAK4 Kinase Assay. Format: biochemical. The settings on record: IMAP fluorescence polarization, 0.5 nM GST tagged IRAK4, 100 μM ATP, 30 minutes at 25° C. In general terms: In fluorescence polarisation assays a small probe gives low polarisation when free and higher when bound to something large.
Sequence of IRAK4 (Q9NWZ3 whole entry): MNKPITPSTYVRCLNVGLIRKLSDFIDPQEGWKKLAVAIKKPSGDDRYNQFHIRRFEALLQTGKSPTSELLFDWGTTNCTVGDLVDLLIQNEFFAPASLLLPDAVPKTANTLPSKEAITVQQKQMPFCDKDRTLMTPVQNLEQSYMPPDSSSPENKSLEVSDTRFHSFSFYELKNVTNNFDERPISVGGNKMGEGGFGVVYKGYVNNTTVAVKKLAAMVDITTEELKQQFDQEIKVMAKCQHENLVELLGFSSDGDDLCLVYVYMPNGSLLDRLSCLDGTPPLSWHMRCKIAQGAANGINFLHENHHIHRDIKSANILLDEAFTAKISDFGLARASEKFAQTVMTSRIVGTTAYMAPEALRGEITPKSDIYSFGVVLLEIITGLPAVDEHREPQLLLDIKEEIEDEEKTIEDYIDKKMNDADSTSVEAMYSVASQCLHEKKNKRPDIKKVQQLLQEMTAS

Protocol: The kinase activity of IRAK4 is determined by its ability to catalyze the phosphorylation of a fluorescent polypeptide substrate. The extent of phosphorylation is measured using the IMAP technology (Molecular Devices) where the phosphorylated fluorescent substrate binds to the large M(III)-based nanoparticles which reduces the rotational speed of the substrate and thus increases its fluorescent polarization (FP).
20 μL reaction mixture contains 10 mM TriHCl, pH 7.2, 0.5 nM GST tagged IRAK4 (SignalChem), 100 nM fluorescent peptide substrate (RP7030, Molecular Devices), 100 μM ATP, 1 mM DDT, 1 mM MgCl2, and 0.01% Tween 20. The reaction is initiated by the addition of ATP. After incubation for 30 minutes at 25° C., 60 μL of Progressive IMAP Reagent (Molecular Devices) is added to stop the reaction. Change in RP7030's FP is determined by a FP reader (Analyst HT, LJL BioSystems).

Broadly, the IC50 is the concentration at which inhibition is half-maximal. As to `Cn1ncc(NC(=O)c2cnn3ccc(N[C@@H]4CCCC[C@@H]4N)nc23)c1C(F)(F)F` [Example 166, 5-{[(1R,2S)-2-aminocyclohexyl]amino}-N-[1-methyl-5-(trifluoromethyl)-1H-pyrazol-4-yl]pyrazolo[1,5-a]pyrimidine-3-carboxamide trifluoroacetate], where the note is “read-out: IRAK4 IC50”, the IC50 turned out to be 15 nM. The same measure, in the same setting: to `O=C(Nc1ccccc1Cl)c1cnn2ccc(N3CC4CCC3CN4)nc12` (stereo not shown) [Example 107, N-(2-chlorophenyl)-5-(2,5-diazabicyclo[2.2.2]oct-2-yl)pyrazolo[1,5-a]pyrimidine-3-carboxamide trifluoroacetate] belongs 521 nM. For the compound `C[C@@H]1CN(c2ccn3ncc(C(=O)Nc4cn(C)nc4C(F)(F)F)c3n2)[C@H](C)CN1` (relative stereo) [Example 75, 5-[cis-2,5-dimethylpiperazin-1-yl]-N-[1-methyl-3-(trifluoromethyl)-1H-pyrazol-4-yl]pyrazolo[1,5-a]pyrimidine-3-carboxamide trifluoroacetate], the IC50 (read-out: IRAK4 IC50) was found to be 55 nM. In the case of `N#Cc1ccccc1NC(=O)c1cnn2ccc(N3CCNCC3)nc12` [Example 274, N-(2-cyanophenyl)-5-piperazin-1-ylpyrazolo[1,5-a]pyrimidine-3-carboxamide trifluoroacetate], under “read-out: IRAK4 IC50”, the IC50 worked out at 660 nM. Under “IRAK4 IC50 (nM)”, `Cn1cc(NC(=O)c2cnn3ccc(N4CC5CNCC4COC5)nc23)c(C(F)(F)F)n1` (stereo not shown) [Example 212, 5-(3-Oxa-7,9-diazabicyclo[3.3.2]decan-9-yl)-N-(1-methyl-3-(trifluoromethyl)-1H-pyrazol-4-yl)pyrazolo[1,5-a]pyrimidine-3-carboxamide] displayed an IC50 of 9 nM. For `O=C(Nc1cscc1Cl)c1cnn2ccc(N3CCCNCC3)nc12` [Example 167, N-(4-chlorothiophen-3-yl)-5-(1,4-diazepan-1-yl)pyrazolo[1,5-a]pyrimidine-3-carboxamide trifluoroacetate], the half-maximal inhibitory concentration (IC50) (read-out: IRAK4 IC50) was 480 nM. On the same count and under the same terms, as for `CCN1CCCN(c2ccn3ncc(C(=O)Nc4cn(C)nc4C(F)(F)F)c3n2)CC1` [Example 10, 5-(4-ethyl-1,4-diazepan-1-yl)-N-[1-methyl-3-(trifluoromethyl)-1H-pyrazol-4-yl]pyrazolo[1,5-a]pyrimidine-3-carboxamide], the figure is 1100 nM; as for `N#Cc1sccc1NC(=O)c1cnn2ccc(N3CC4CCC3CN4)nc12` (stereo not shown) [Example 110, N-(2-cyanothiophen-3-yl)-5-(2,5-diazabicyclo[2.2.2]oct-2-yl)pyrazolo[1,5-a]pyrimidine-3-carboxamide trifluoroacetate], 193 nM.

Regarding `Cn1cc(NC(=O)c2cnn3ccc(N4CCN5CCCC5C4)nc23)c(C(F)(F)F)n1` (stereo not shown) [Example 18, 5-(hexahydropyrrolo[1,2-a]pyrazin-2(1H)-yl)-N-[1-methyl-3-(trifluoromethyl)-1H-pyrazol-4-yl]pyrazolo[1,5-a]pyrimidine-3-carboxamide], where the note is “read-out: IRAK4 IC50”, the IC50 came out at 97 nM. On the same count and under the same terms, to `CC1CN(c2ccn3ncc(C(=O)Nc4cn(C)nc4C(F)(F)F)c3n2)C(C)CN1` (stereo not shown) [Example 79, 5-(2,5-dimethylpiperazin-1-yl)-N-[1-methyl-3-(trifluoromethyl)-1H-pyrazol-4-yl]pyrazolo[1,5-a]pyrimidine-3-carboxamide trifluoroacetate] belongs 62 nM. As to `O=C(Nc1ccsc1C(F)(F)F)c1cnn2ccc(N3CC4CCC3CN4)nc12` (stereo not shown) [Example 147, 5-(2,5-diazabicyclo[2.2.2]oct-2-yl)-N-[2-(trifluoromethyl)thiophen-3-yl]pyrazolo[1,5-a]pyrimidine-3-carboxamide trifluoroacetate], where the note is “read-out: IRAK4 IC50”, the IC50 was 979 nM.

As to `O=C(Nc1ccsc1Cl)c1cnn2ccc(N3CC4CCC3CN4)nc12` (stereo not shown) [Example 134, N-(2-chlorothiophen-3-yl)-5-(2,5-diazabicyclo[2.2.2]oct-2-yl)pyrazolo[1,5-a]pyrimidine-3-carboxamide trifluoroacetate], where the note is “read-out: IRAK4 IC50”, the 50% inhibitory concentration (IC50) was 306 nM. Still for that read-out and setting: to `Cn1cc(NC(=O)c2cnn3ccc(N4C[C@H](N)C[C@@H](F)C4)nc23)c(C(F)F)n1` [Example 253, 5-[(3R,5R)-3-amino-5-fluoropiperidin-1-yl]-N-[3-(difluoromethyl)-1-methyl-1H-pyrazol-4-yl]pyrazolo[1,5-a]pyrimidine-3-carboxamide trifluoroacetate] belongs 0.5 nM; to `Cn1cc(NC(=O)c2cnn3ccc(N[C@@H]4CCCC[C@@H]4N)nc23)c(Cl)n1` [Example 149, 5-{[(1R,2S)-2-aminocyclohexyl]amino}-N-(3-chloro-1-methyl-1H-pyrazol-4-yl)pyrazolo[1,5-a]pyrimidine-3-carboxamide trifluoroacetate], 0.5 nM. For `N#Cc1ccccc1NC(=O)c1cnn2ccc(N3CCC[C@@H](N)C3)nc12` [Example 269, 5-[(3R)-3-aminopiperidin-1-yl]-N-(2-cyanophenyl)pyrazolo[1,5-a]pyrimidine-3-carboxamide trifluoroacetate], the IC50 (read-out: IRAK4 IC50) was determined as 143 nM. On to `CC(C)(C)n1cc(NC(=O)c2cnn3ccc(N4CCNCC4)nc23)c(C(F)(F)F)n1` [Example 46, N-[1-tert-butyl-3-(trifluoromethyl)-1H-pyrazol-4-yl]-5-piperazin-1-ylpyrazolo[1,5-a]pyrimidine-3-carboxamide trifluoroacetate], for which the IC50 (read-out: IRAK4 IC50) is 48 nM. Still for that read-out and setting: to `Cn1cc(NC(=O)c2cnn3ccc(N[C@H]4CNC[C@H](F)C4)nc23)c(C(F)(F)F)n1` [Example 260, 5-{[(3R,5R)-5-fluoropiperidin-3-yl]amino}-N-[1-methyl-3-(trifluoromethyl)-1H-pyrazol-4-yl]pyrazolo[1,5-a]pyrimidine-3-carboxamide] belongs 4 nM; to `Cn1cc(NC(=O)c2cnn3ccc(N4C[C@@H]5CN[C@@H](C5)C4)nc23)c(C(F)F)n1` (single isomer, unassigned) [Example 183, 5-[(1S,5S)- or (1R,5R)-3,6-diazabicyclo[3.2.1]oct-3-yl]-N-[3-(difluoromethyl)-1-methyl-1H-pyrazol-4-yl]pyrazolo[1,5-a]pyrimidine-3-carboxamide trifluoroacetate], 6 nM. Same read-out and setting: to `N#Cc1ccccc1NC(=O)c1cnn2ccc(N[C@@H]3CCCC[C@@H]3O)nc12` [Example 266, N-(2-cyanophenyl)-5-{[(1R,2S)-2-hydroxycyclohexyl]amino}pyrazolo[1,5-a]pyrimidine-3-carboxamide trifluoroacetate] belongs 562 nM; to `Cn1cc(NC(=O)c2cnn3ccc(N[C@H]4CCC(F)(F)C[C@H]4N)nc23)c(C(F)F)n1` (single isomer, unassigned) [Example 209, 5-{[(1S,2R)- or (1R,2S)-2-amino-4,4-difluorocyclohexyl]amino}-N-[3-(difluoromethyl)-1-methyl-1H-pyrazol-4-yl]pyrazolo[1,5-a]pyrimidine-3-carboxamide], 1 nM; to `O=C(Nc1cn(CC(F)F)nc1C(F)(F)F)c1cnn2ccc(N3CCNCC4(CC4)C3)nc12` [Example 64, 5-(5,8-diazaspiro[2.6]non-5-yl)-N-[1-(2,2-difluoroethyl)-3-(trifluoromethyl)-1H-pyrazol-4-yl]pyrazolo[1,5-a]pyrimidine-3-carboxamide trifluoroacetate], 18 nM. The same measure, in the same setting: to `Cn1cc(NC(=O)c2cnn3ccc(NC4CCNCC4)nc23)c(C(F)(F)F)n1` [Example 7, N-[1-methyl-3-(trifluoromethyl)-1H-pyrazol-4-yl]-5-(piperidin-4-ylamino)pyrazolo[1,5-a]pyrimidine-3-carboxamide trifluoroacetate] belongs 39 nM.

Source of the values: US10329294B2, “Pyrazolopyrimidine inhibitors of IRAK4 activity” (MERCK SHARP & DOHME CORP., priority 2015, dated 2019).
